# In patent publication US10106542B2, “Substituted 6,7-dihydropyrazolo[1,5-a]pyrazines as negative allosteric modulators of mGluR2 receptors” (Janssen Pharmaceutica NV, priority 2013, dated 2018):
# Where two headings read alike, the source gives them in different places.
# What was measured:
# [1] = test system: Male Wiga Wistar rats; experiment: Reversal of LY-404039-induced decrease of palpebral opening in apomorphine-challenged rats; format: in vivo; conditions: Rattus norvegicus, reversal of LY-404039-induced decrease of palpebral opening (cumulative score >26) in apomorphine challenged rats
# Protocol: 6) Reversal of LY-404039-Induced Decrease of Palpebral Opening in Apomorphine-Challenged Rats.
# Male Wiga Wistar rats (Crl:WI; Charles River Germany; 220±40 g) were housed under standard laboratory conditions (21±2° C.; 50-65% relative humidity; light-dark cycle set at 12 h; lights on at 6.00 h) and fasted overnight prior to the start of the experiments (tap water remained available ad libitum). During the test period, they were housed in individual cages. The local Ethical Committee approved all studies in compliance with the Declaration of Helsinki. Palpebral opening was scored every 5 min over the first hour after injection of apomorphine (1.0 mg/kg, i.v.) in animals either pretreated or not pretreated with LY-404039 (2.5 mg/kg, s.c.) at 1 h prior to the apomorphine injection. The animals were also pretreated with test compound or solvent at a predefined interval before apomorphine challenge. The score system was: (5) exophthalmos, (4) wide open, (3) open for three-quarters, (2) half open, (1) open for one-quarter, (0) closed. The scores for palpebral opening were cumulated over the 60-min observation period. A cumulative palpebral opening score >26 was selected for drug-induced reversal of the LY-404039-induced decrease of palpebral opening (occurrence in 3.2% of control animals pretreated with LY-404039 (n=154) versus in 99.5% of control rats not pretreated with LY-404039 (n=6335)).
# In animals receiving apomorphine alone the median palpebral opening is 43 whereas in animals receiving apomorphine and LY-404039, the median palpebral opening is 17.
# [2] = target: T1, human mGlu2 receptor (Homo sapiens, UniProt Q14416); experiment: [35S]GTPγS binding assay (mGluR2 negative allosteric modulation); format: biochemical
# T1 construct: expressed in transfected cells; host or cells: CHO cells (membrane preparation)
# T1 sequence (Q14416 19-872): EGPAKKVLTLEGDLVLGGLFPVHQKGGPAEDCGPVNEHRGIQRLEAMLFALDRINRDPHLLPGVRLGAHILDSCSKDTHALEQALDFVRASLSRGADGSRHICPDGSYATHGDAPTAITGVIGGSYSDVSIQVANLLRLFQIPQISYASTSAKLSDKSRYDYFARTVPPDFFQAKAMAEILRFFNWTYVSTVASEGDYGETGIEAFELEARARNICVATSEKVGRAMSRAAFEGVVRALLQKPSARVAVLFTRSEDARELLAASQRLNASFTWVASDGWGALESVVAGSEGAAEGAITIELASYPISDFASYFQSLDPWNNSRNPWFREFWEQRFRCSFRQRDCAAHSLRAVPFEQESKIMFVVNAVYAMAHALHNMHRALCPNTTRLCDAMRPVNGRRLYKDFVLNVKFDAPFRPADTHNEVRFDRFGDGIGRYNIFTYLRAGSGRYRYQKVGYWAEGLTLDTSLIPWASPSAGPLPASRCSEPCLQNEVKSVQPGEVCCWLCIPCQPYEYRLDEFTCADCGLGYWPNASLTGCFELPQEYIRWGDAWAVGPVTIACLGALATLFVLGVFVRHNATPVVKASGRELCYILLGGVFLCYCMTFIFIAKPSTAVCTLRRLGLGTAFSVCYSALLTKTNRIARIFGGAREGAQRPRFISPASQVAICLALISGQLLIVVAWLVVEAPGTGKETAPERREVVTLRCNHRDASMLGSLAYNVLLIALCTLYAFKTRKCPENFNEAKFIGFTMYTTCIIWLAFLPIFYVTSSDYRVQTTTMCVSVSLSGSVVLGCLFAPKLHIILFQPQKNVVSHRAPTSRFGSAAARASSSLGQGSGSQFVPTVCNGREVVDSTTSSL
# Procedure, shortened: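 Negative allosteric modulation read as [35S]GTPγS (0.1 nM) incorporation over 30 min at 30 °C, expressed as % of the response to an EC80-equivalent glutamate concentration. Assay used 7 μg human mGlu2 CHO membrane protein in HEPES pH 7.4 buffer with NaCl, MgCl2, GDP and saponin; bound label collected by filtration.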
# [3] = test system: Wiga rats; experiment: Reserpine interaction test in rats; format: in vivo, rat; conditions: Rattus norvegicus, Wiga rats
# Protocol: 4) Reserpine Interaction Test in Rats
# It was investigated to what extent the mydriatic action of test compounds was sufficient to counteract the miosis induced by the monoamines-depleting agent reserpine (10 mg/kg; SC) in Wiga rats.
# The effects are illustrated in FIG. 3. […] The reference mGlu2 NAMs RO-4995819 (40 mg/kg, p.o.), RO-4491533 (40 mg/kg, p.o.; 10 mg/kg, s.c.) and [CAS 579473-69-1]
smiles,measurement,setting,value
"Cc1cc(-c2cnn3c2C(=O)N(c2ccc(C(F)(F)F)cc2)C[C@@H]3C)ccn1 [compound 1, (7S)-7-Methyl-3-(2-methylpyridin-4-yl)-5-[4-(trifluoromethyl)phenyl]-6,7-dihydropyrazolo[1,5-a]pyrazin-4(5H)-one]",ED50,[1]; Route PO,0.45 mg/kg
same,ED50,[1]; Route SC,0.3 mg/kg
same,GTPγS - hmGluR2 anGT pIC50,"[2]; membranes from CHO cells transfected with human mGlu2 receptor, glutamate 60 μM, pIC50 = −log IC50 (M)",8.05
same,Emax,"[2]; relative maximal effect: maximal % inhibition relative to the control glutamate response, read-out: GTPγS - hmGluR2 anGT Emax",106%
same,ED50,"[3]; p.o., -1 h, reserpine 10 mg/kg SC, read-out: ED50 reversal of reserpine-induced miosis",9.4 mg/kg
same,ED50,"[3]; p.o., -1 h, reserpine 10 mg/kg SC, read-out: ED50 reversal of reserpine-induced ptosis",0.78 mg/kg
same,ED50,"[3]; p.o., -1 h, reserpine 10 mg/kg SC, read-out: ED50 reversal of reserpine-induced sedation",7.1 mg/kg
same,ED50,"[3]; p.o., -4 h, reserpine 10 mg/kg SC, read-out: ED50 reversal of reserpine-induced miosis",9.4 mg/kg
same,ED50,"[3]; p.o., -4 h, reserpine 10 mg/kg SC, read-out: ED50 reversal of reserpine-induced ptosis",0.78 mg/kg
same,ED50,"[3]; p.o., -4 h, reserpine 10 mg/kg SC, read-out: ED50 reversal of reserpine-induced sedation",14 mg/kg
same,ED50,"[3]; po, -1 h, read-out: ED50 mydriasis before the reserpine challenge",1.55 mg/kg
same,ED50,"[3]; po, -4 h, read-out: ED50 mydriasis before the reserpine challenge",0.89 mg/kg
same,ED50,"[3]; po, Time 60, reserpine 10 mg/kg SC, read-out: ED50, reversal of reserpine-induced ptosis",0.67 mg/kg
same,ED50,"[3]; po, Time 240, reserpine 10 mg/kg SC, read-out: ED50, reversal of reserpine-induced ptosis",0.89 mg/kg
same,ED50,"[3]; sc, Time 60, reserpine 10 mg/kg SC, read-out: ED50, reversal of reserpine-induced ptosis",1.01 mg/kg
same,ED50,"[3]; sc, read-out: ED50 mydriasis before the reserpine challenge",1.78 mg/kg
same,ED50,"[3]; sc, reserpine 10 mg/kg SC, read-out: ED50 reversal of reserpine-induced miosis",4.1 mg/kg
same,ED50,"[3]; sc, reserpine 10 mg/kg SC, read-out: ED50 reversal of reserpine-induced ptosis",1.03 mg/kg
same,ED50,"[3]; sc, reserpine 10 mg/kg SC, read-out: ED50 reversal of reserpine-induced sedation",9.4 mg/kg
